Test results taken from the Deep4Chem optical property database.
Several values for one entry are separate records, joined by “and”; a condition that tells them apart may be missing. Equal values may be shown once.

Assay: photoluminescence quantum yield (fraction); solvent given as SMILES

Question: Which photoluminescence quantum yield (in CS(C)=O) does the source give for `CCC/N=C/c1cc2ccc(N(C)C)cc2cc1OC` here?
Answer: 0.61

Question: For `C(/C=C/c1ccc(N(c2ccccc2)c2ccccc2)cc1)=C\c1ccncc1`, which photoluminescence quantum yield (in C1COCCO1) is on record?
Answer: 0.3

Question: What about the photoluminescence quantum yield (in CC#N) of the same molecule?
Answer: 0.16

Question: And the photoluminescence quantum yield (in CCCCCCC)?
Answer: 0.4

Question: And the photoluminescence quantum yield (in CO)?
Answer: 0.02

Question: For `c1ccc(-c2ccccc2)cc1`, which photoluminescence quantum yield (in C1CCCCC1) is on record?
Answer: 0.25

Question: What about the photoluminescence quantum yield (in C1COCCO1) of the same molecule?
Answer: 0.18

Question: For `COCCOCCOCCOc1cc(C=O)c(OCCOCCOCCOC)cc1C=O`, which photoluminescence quantum yield (in CC(C)(C)O) is on record?
Answer: 0.12

Question: What about the photoluminescence quantum yield (in CC(C)CO) of the same molecule?
Answer: 0.12

Question: And the photoluminescence quantum yield (in CC(C)O)?
Answer: 0.11

Question: And the photoluminescence quantum yield (in CCCCO)?
Answer: 0.13

Question: What about the photoluminescence quantum yield (in CCCO) of the same molecule?
Answer: 0.16

Question: What about the photoluminescence quantum yield (in CCO) of the same molecule?
Answer: 0.19

Question: What about the photoluminescence quantum yield (in CN(C)C=O) of the same molecule?
Answer: 0.04

Question: And the photoluminescence quantum yield (in CNC=O)?
Answer: 0.08

Question: And the photoluminescence quantum yield (in CO)?
Answer: 0.23

Question: What about the photoluminescence quantum yield (in NC=O) of the same molecule?
Answer: 0.31

Question: And the photoluminescence quantum yield (in O)?
Answer: 0.54

Question: For `Cc1cc2nc3c(=O)n(C)c(=O)nc-3n(C)c2cc1C`, which photoluminescence quantum yield (in CC#N) is on record?
Answer: 0.17 and 0.47

Question: Which photoluminescence quantum yield (in C1CCCCC1) does the source give for `c1ccc(-c2cc3cccc[n+]3[b-]3ccc(-c4cc[b-]5c(c4)c(-c4ccccc4)cc4cccc[n+]54)cc32)cc1` here?
Answer: 0.16

Question: With `N#Cc1cc(-c2ccc(N3c4ccccc4Oc4ccccc43)cc2)c(-c2ccc(N3c4ccccc4Oc4ccccc43)cc2)cc1C#N` as the molecule, how does the photoluminescence quantum yield (in Cc1ccccc1) read?
Answer: 0.42

Question: What about the photoluminescence quantum yield (in c1cc(-c2cccc(-n3c4ccccc4c4ccccc43)c2)cc(-n2c3ccccc3c3ccccc32)c1) of the same molecule?
Answer: 0.77

Question: For `Oc1ccc2ccccc2c1-c1nc(-c2ccccc2)c2ccccn12`, which photoluminescence quantum yield (in ClCCl) is on record?
Answer: 0.136

Question: With `CCOC(=O)/C(C#N)=C\c1ccc2c(c1)c1ccccc1n2-c1ccc(C)cc1` as the molecule, how does the photoluminescence quantum yield (in C1CCOC1) read?
Answer: 0.09

Question: And the photoluminescence quantum yield (in CC#N)?
Answer: 0.01

Question: And the photoluminescence quantum yield (in CC(C)=O)?
Answer: 0.025

Question: What about the photoluminescence quantum yield (in CCOC(C)=O) of the same molecule?
Answer: 0.11

Question: And the photoluminescence quantum yield (in CO)?
Answer: 0.06

Question: And the photoluminescence quantum yield (in CS(C)=O)?
Answer: 0.04

Question: And the photoluminescence quantum yield (in Cc1ccccc1)?
Answer: 0.095

Question: And the photoluminescence quantum yield (in ClC(Cl)Cl)?
Answer: 0.08

Question: For `CC(C)Nc1cc2c(cc1F)c(=O)c1cc(F)c(NC(C)C)cc1n2C(C)C`, which photoluminescence quantum yield (in CCO) is on record?
Answer: 0.32

Question: For `CCCCCCc1cc2c3c(c1)c(=C1c4ccccc4S(=O)(=O)c4ccccc41)c1cc(CCCCCC)cc4c1N3c1c(cc(CCCCCC)cc1c4=C1c3ccccc3S(=O)(=O)c3ccccc31)c2=C1c2ccccc2S(=O)(=O)c2ccccc21`, which photoluminescence quantum yield (in ClCCl) is on record?
Answer: 0.47

Question: With `COc1cc(-c2nc3c4cccnc4c4ncccc4c3[nH]2)c(OC)cc1/C=C/c1nc2ccccc2[nH]1` as the molecule, how does the photoluminescence quantum yield (in C1CCOC1) read?
Answer: 0.75

Question: What about the photoluminescence quantum yield (in CC#N) of the same molecule?
Answer: 0.43

Question: What about the photoluminescence quantum yield (in CO) of the same molecule?
Answer: 0.21

Question: What about the photoluminescence quantum yield (in ClCCl) of the same molecule?
Answer: 0.62

Question: With `CC(C)(C)c1ccc2c(c1)c1ncncc1c1c3ccccc3sc21` as the molecule, how does the photoluminescence quantum yield (in ClCCl) read?
Answer: 0.1

Question: Which photoluminescence quantum yield (in Cc1ccccc1) does the source give for `COc1ccc(C2=[N+]3C(=Nc4c(-c5cc(OC)c(OC)c(OC)c5)c(-c5ccc(C(C)(C)C)cc5)c(-c5ccc(OC)cc5)n4[B-]3(F)F)C(c3cc(OC)c(OC)c(OC)c3)=C2c2ccc(C(C)(C)C)cc2)cc1` here?
Answer: 0.04

Question: With `COc1ccc(-c2ccc3c(c2)[Si](C)(C)c2cc(-c4ccc(OC)cc4)ccc2C=C3)cc1` as the molecule, how does the photoluminescence quantum yield (in ClCCl) read?
Answer: 0.93

Question: Which photoluminescence quantum yield (in C1CCOC1) does the source give for `F[Si-](F)(c1ccccc1)(c1c2ccccc2cc2ccccc12)c1c2ccccc2cc2ccccc12` here?
Answer: 0.46

Question: With `c1ccc(-c2nnc(-c3ccccc3)n2-c2ccc(N3c4ccccc4N(c4ccccc4)c4ccccc43)cc2)cc1` as the molecule, how does the photoluminescence quantum yield (in Cc1ccccc1) read?
Answer: 0.03

Question: What about the photoluminescence quantum yield (in c1cc(-n2c3ccccc3c3ccccc32)cc(-n2c3ccccc3c3ccccc32)c1) of the same molecule?
Answer: 0.12

Question: With `CCCCCCN1C(=O)c2cccc3cc(/N=C\c4ccc(N(c5ccccc5)c5ccccc5)cc4)cc(c23)C1=O` as the molecule, how does the photoluminescence quantum yield (in ClC(Cl)Cl) read?
Answer: 0.14

Question: Which photoluminescence quantum yield (in C1CCOC1) does the source give for `CCCCC1(CCCC)c2cc(C#Cc3ccc(/C=C(\C)c4ccccc4)cc3)ccc2-c2ccc(C#Cc3ccc(/C=C(\C)c4ccccc4)cc3)cc21` here?
Answer: 0.586

Question: With `Nc1ccc2c(c1)Cc1ccccc1-2` as the molecule, how does the photoluminescence quantum yield (in C1CCCCC1) read?
Answer: 0.74

Question: What about the photoluminescence quantum yield (in C1COCCO1) of the same molecule?
Answer: 0.73

Question: What about the photoluminescence quantum yield (in CC#N) of the same molecule?
Answer: 0.52

Question: What about the photoluminescence quantum yield (in CO) of the same molecule?
Answer: 0.84

Question: What about the photoluminescence quantum yield (in O) of the same molecule?
Answer: 0.2

Question: With `C(#Cc1c(C#Cc2ccccc2)c(C#Cc2ccccc2)c(C#Cc2ccccc2)c(C#Cc2ccccc2)c1C#Cc1ccccc1)c1ccccc1` as the molecule, how does the photoluminescence quantum yield (in ClCCl) read?
Answer: 0.43

Question: With `CC[n+]1nc2cc3c4c(c2c2ccccc21)CCCN4CCC3` as the molecule, how does the photoluminescence quantum yield (in O) read?
Answer: 0.25

Question: With `F[B-]1(F)n2c(ccc2-c2ccccc2)C(c2ccc(I)cc2)=C2C=CC(c3ccccc3)=[N+]21` as the molecule, how does the photoluminescence quantum yield (in ClC(Cl)Cl) read?
Answer: 0.2

Question: Which photoluminescence quantum yield (in ClC(Cl)Cl) does the source give for `N#Cc1nc(N(Cc2ccccc2I)Cc2ccccc2I)c(C#N)nc1N(Cc1ccccc1I)Cc1ccccc1I` here?
Answer: 0.61

Question: Which photoluminescence quantum yield (in C1COCCO1) does the source give for `c1ccc(-c2nc(-c3ccc(-c4ccc(-c5nc(-c6ccccc6)c(-c6ccccc6)o5)cc4)cc3)oc2-c2ccccc2)cc1` here?
Answer: 0.74

Question: Which photoluminescence quantum yield (in CC#N) does the source give for `Fc1cccc(-[c+]2c3ccccc3oc3ccccc32)c1` here?
Answer: 0.18

Question: For `COc1cc2c(cc1OC)C1=C3C(=O)N4C=Cc5cc(OC)c(OC)cc5C4=C3C(=O)N1C=C2`, which photoluminescence quantum yield (in CN(C)C=O) is on record?
Answer: 0.7

Question: What about the photoluminescence quantum yield (in ClC(Cl)Cl) of the same molecule?
Answer: 0.85
